Source: patent US20180271870A1, “Compositions and Methods for Immune Therapy” (Augusta University Research Institute, Inc., priority 2014, published 2018)

Tests used:
CD8 T cells [1] = assay: Phenotyping of gp100-stimulated pMel-1 CD8 T cells by flow cytometry; format: cell-based, mouse; conditions: for up-regulation of exhaustion marker KLRG-1 in CD8 T cells: after the second and third stimulations; for CD62L expression in CD8 T cells / CD127 expression in CD8 T cells: day 3 and/or day 7 after each stimulation with gp100; for percentage of CD8 T cells with TCM phenotype (CD62LhiCD44hi): pMel-1 splenocytes, gp100 25-33 1 μM, representative example, gated viable CD8+Vβ13+; for percentage of naïve cells (CD62LhiCD44lo) versus non-treated: after 3 days of stimulation; for reservoir of TCM cells after repeated stimulation: day 7 after each stimulation, MK-2206 0.67 μM, Akt 1/2 inhibitor 2.2 μM
Description: Tumor antigen-specific CD8 T cells Unfractionated splenocytes from pMel-1 mice were homogenized and stimulated in vitro by gp10025-33 peptide at a 1 μM/ml concentration (day 0). Cells were cultured in RPMI 1640 (Lonza, Allendale, N.J.) supplemented with 10% FBS, penicillin (100 U/mL), streptomycin ([…]), 0.1% β-mercaptoethanol (Life Technologies, Invitrogen, Carlsbad, Calif.) and IL-2 (100 U/ml) (Peprotech, Rocky Hill, N.J.) at 37° C. with 5% CO2. […]. The concentration of the inhibitors was maintained throughout the culture by changing the media every 48-72 hours.
On Days 7, 14 and 21, cells were re-stimulated with gp10025-33 peptide at a 1 μM/ml concentration using feeder cells (irradiated WT splenocytes, 4000 Rads) at 1:1 ratio using the same culture conditions.
To assess the phenotype of the T cells, the cultured cells were harvested and analyzed on days 3, 7, 14 and 21. The cells were stained with APC-Cy7 labeled anti-CD8, FITC labeled anti-Vβ13, PE labeled anti-CD62L, APC labeled anti-CD44, PE-CF594 labeled anti-CD127, APC labeled anti-KLRG-1 in addition to the viability stain 7AAD (BD Biosciences, San Jose, Calif.). The same APC-Cy7 labeled anti-CD8 was used for sorting the cells using the FACS ARIA II (BD Biosciences, San Jose, Calif.).
For proliferation and phenotyping, the analyses were performed on CD8 T cells specific for the gp100 antigen and were gated on viable (7AAD−), Vβ13+CD8+ T cells. For WT and KO cells, the cells were gated on viable (7AAD−), CD8+ T cells.

CD8 T cells [2] = assay: Proliferation assay (VCT dye dilution / expansion) of gp100-stimulated pMel-1 CD8 T cells; format: cell-based, mouse; conditions: for expansion of CD8 T cells with further stimulations: re-stimulation days 7, 14, 21, normalized to non-treated control; for proliferation of CD8 T cells (VCT dilution): day 3 after first stimulation
Description: Prior to their stimulation (day 0), cells were labeled with 5 μM Violet Cell Trace (VCT) proliferation dye (Life Technologies, Invitrogen, Carlsbad, Calif.) following the manufacturers' instructions. Samples were then evaluated for CD8 T cell expansion via VCT dye dilution (day 3) using an LSRII SORP with HTS Flow Cytometer (BD Biosciences, San Jose, Calif.). The data were analyzed using FlowJo 9 or 10 (Tree Star).

[3] = intermittent dosing schedule of 480 mg twice a day; cited from earlier work
CD8 T cells [4] = assay: Cytometric bead array of cytokine secretion by re-stimulated pMel-1 CD8 T cells; format: cell-based, mouse; conditions: for IL-2 secretion: re-stimulated CD8 T cells; for IFNγ secretion with further stimulations / TNF secretion with further stimulations: supernatant after 24 hours, CBA
Description: Following the same activation protocol mentioned above, the pMel-1 gp100-specific CD8 T cells were harvested on day 7 after the first and second stimulation. The viable cells (trypan blue negative) were then counted and co-incubated (at 1:1 ratio) with 1 μM/ml gp10025-33 pulsated irradiated splenocytes (4000 Rads) for 24 hours using the same culture conditions. The supernatant was collected and the level of IL-2, TNF and IFN-γ was assessed using the mouse Th1/Th2/Th17 Cytokine Kit BD™ Cytometric Bead Array (CBA) kit. The data was collected using an LSRII SORP with HTS flow cytometer (BD Biosciences, San Jose, Calif.), and analyzed using the FCAP Array Software v3.0 (BD Biosciences, San Jose, Calif.).

CD8 T cells [5] = assay: Phenotype of anti-CD3/anti-CD28 stimulated CD8 T cells from WT and Akt KO mice; format: cell-based, mouse; conditions: day 7; anti-CD3 (1 ng/ml) + anti-CD28; MK-2206 0.67 μM, Akt 1/2 inhibitor 2.2 μM
Description: The cells were then stimulated using feeder cells (irradiated WT splenocytes, 4000 Rads) at 1:1 ratio (day 0) using TCR stimulation ([…], BD Biosciences, San Jose, Calif.) and co-stimulation (anti-CD28 antibody 2.5 μg/ml BD Biosciences, San Jose, Calif.) in the presence of 100 U/ml IL-2 (Peprotech, Rocky Hill, N.J.). […] Cells were cultured in the same conditions described above. To assess the phenotype of the T cells, the cultured cells were harvested and analyzed on days 3, 7, 14 and 21. The cells were stained with APC-Cy7 labeled anti-CD8, FITC labeled anti-Vβ13, PE labeled anti-CD62L, APC labeled anti-CD44, PE-CF594 labeled anti-CD127, APC labeled anti-KLRG-1 in addition to the viability stain 7AAD (BD Biosciences, San Jose, Calif.). The same APC-Cy7 labeled anti-CD8 was used for sorting the cells using the FACS ARIA II (BD Biosciences, San Jose, Calif.). For proliferation and phenotyping, the analyses were performed on CD8 T cells specific for the gp100 antigen and were gated on viable (7AAD−), Vβ13+CD8+ T cells. For WT and KO cells, the cells were gated on viable (7AAD−), CD8+ T cells.

[6] = tested on: 250 other protein kinases; conditions: cited from earlier work
[7] = cited from earlier work

| Compound | up-regulation of exhaustion marker KLRG-1 in CD8 T cells (CD8 T cells [1]) | CD62L expression in CD8 T cells (CD8 T cells [1]) | CD127 expression in CD8 T cells (CD8 T cells [1]) | percentage of CD8 T cells with TCM phenotype (CD62LhiCD44hi) (CD8 T cells [1]) [%] | expansion of CD8 T cells with further stimulations (CD8 T cells [2]) | percentage of naïve cells (CD62LhiCD44lo) versus non-treated (CD8 T cells [1]) | reservoir of TCM cells after repeated stimulation (CD8 T cells [1]) | proliferation of CD8 T cells (VCT dilution) (CD8 T cells [2]) | IL-2 secretion (CD8 T cells [4]) | IFNγ secretion with further stimulations (CD8 T cells [4]) | TNF secretion with further stimulations (CD8 T cells [4]) | TCM cells in CD8 T cells from Akt1 KO mice (CD8 T cells [5]) | TCM cells in CD8 T cells from Akt2 KO mice (CD8 T cells [5]) | TCM cells in CD8 T cells from Akt3 KO mice (CD8 T cells [5]) | phenotype of CD8 T cells from WT mice (CD8 T cells [5]) | other results |
| --- | --- | --- | --- | --- | --- | --- | --- | --- | --- | --- | --- | --- | --- | --- | --- | --- |
| NC1(C(=O)N[C@@H](CCO)c2ccc(Cl)cc2)CCN(c2ncnc3[nH]ccc23)CC1 [AZD5363] | inhibits the up-regulation | maintains a high level | maintains a high level | 91 | enhanced the proliferation | – | – | – | – | – | – | – | – | – | – | tolerability [3]: generally well tolerated |
| O.O=C(O)C(F)(F)F.O=c1[nH]c2ccccc2n1C1CCN(Cc2ccc(-c3nc4cc5[nH]cnc5cc4nc3-c3ccccc3)cc2)CC1 [Akt 1/2 inhibitor, 1,3-Dihydro-1-(1-((4-(6-phenyl-1H-imidazo[4,5-g]quinoxalin-7-yl)phenyl)methyl)-4-piperidinyl)-2H-benzimidazol-2-one trifluoroacetate salt hydrate] | mitigates the up-regulation | maintains a high level | maintains a high level | 76 | significantly enhanced | higher percentage | a high percentage was preserved | inhibited in a dose-dependent manner | high secretion levels | preserved high levels | preserved high levels | more TCM cells | maintains a significantly higher percentage of TCM cells | maintains a significantly higher percentage of TCM cells | consist mainly of TCM cells | – |
| NC1(c2ccc(-c3nc4ccn5c(=O)[nH]nc5c4cc3-c3ccccc3)cc2)CCC1 [MK-2206] | inhibits the up-regulation | maintains a high level | maintains high levels | 65 | expand at a significantly high rate | higher percentage | a high percentage was preserved | inhibited in a dose-dependent manner | significantly higher levels | maintain their ability to secrete IFNγ | significantly higher levels | more TCM cells | maintains a significantly higher percentage of TCM cells | maintains a significantly higher percentage of TCM cells | consist mainly of TCM cells | IFN-γ production after the second stimulation versus non-treated (CD8 T cells [4]; 24 hours after re-stimulation): high and comparable levels; IFN-γ secretion after the third stimulation versus non-treated (CD8 T cells [4]; 24 hours after re-stimulation): maintained at a significantly higher level; TNF production after the second stimulation versus non-treated (CD8 T cells [4]; 24 hours after re-stimulation): high and comparable levels; TNF secretion after the third stimulation versus non-treated (CD8 T cells [4]; 24 hours after re-stimulation): maintained at a significantly higher level; inhibitory activities against 250 other protein kinases [6]: no inhibitory activities; dose-limiting toxicities ([7]; 30, 60, 75 or 90 mg on alternate days): skin rash and stomatitis; MTD ([7]; oral, alternate days, patients with advanced solid tumors): 60 mg |
